# Source: US8044052B2, “Biaryl ether urea compounds” (Pfizer Inc., priority 2006, dated 2011)
# Molecular target: T1, Human FAAH (Homo sapiens, UniProt O00519)
# T1 construct: made in house
# T1 sequence (O00519 1-579): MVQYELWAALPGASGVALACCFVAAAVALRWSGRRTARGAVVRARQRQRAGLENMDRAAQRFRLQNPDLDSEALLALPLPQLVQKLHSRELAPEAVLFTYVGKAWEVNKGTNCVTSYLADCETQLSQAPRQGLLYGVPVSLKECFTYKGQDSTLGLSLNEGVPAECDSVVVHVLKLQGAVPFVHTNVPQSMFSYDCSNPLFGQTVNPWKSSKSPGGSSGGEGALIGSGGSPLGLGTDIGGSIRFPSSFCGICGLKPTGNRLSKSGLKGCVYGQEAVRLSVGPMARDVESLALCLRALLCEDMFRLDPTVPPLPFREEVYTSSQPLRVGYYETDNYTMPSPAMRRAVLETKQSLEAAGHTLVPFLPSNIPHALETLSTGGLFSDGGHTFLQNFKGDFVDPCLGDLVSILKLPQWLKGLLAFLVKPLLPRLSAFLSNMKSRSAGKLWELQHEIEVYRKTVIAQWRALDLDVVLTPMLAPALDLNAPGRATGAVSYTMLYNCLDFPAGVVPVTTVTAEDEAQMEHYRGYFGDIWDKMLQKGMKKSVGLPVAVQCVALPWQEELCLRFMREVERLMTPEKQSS
# Test: FAAH assay (glutamate dehydrogenase-coupled, oleamide substrate, absorbance at 340 nm)
# Format: biochemical
# Settings: irreversible inhibition, 1-4 nM FAAH, pH 7.4, 30° C., 90 min, read-out: hFAAH kinact/Ki
row,kinact/KI [M⁻¹ s⁻¹],SMILES
1,1110,"Cc1cc(NC(=O)N2CCC(=Cc3cccc(Oc4ccc(C(F)(F)F)cn4)c3)CC2)cnc1C [Example 131, N-(5,6-dimethylpyridin-3-yl)-4-(3-{[5-(trifluoromethyl)pyridin-2-yl]oxy}benzylidene)piperidine-1-carboxamide]"
2,105,"O=C(Nc1ncc(Br)cc1CO)N1CCC(=Cc2cccc(Oc3ccc(C(F)(F)F)cn3)c2)CC1 [Example 132, N-[5-bromo-3-(hydroxymethyl)pyridin-2-yl]-4-(3-{[5-(trifluoromethyl)pyridin-2-yl]oxy}benzylidene)piperidine-1-carboxamide]"
3,36.8,"Cc1noc(C)c1NC(=O)N1CCC(=Cc2cccc(Oc3ccc(C(F)(F)F)cn3)c2)CC1 [Example 133, N-(3,5-dimethylisoxazol-4-yl)-4-(3-{[5-(trifluoromethyl)pyridin-2-yl]oxy}benzylidene)piperidine-1-carboxamide]"
4,< 10,"Cc1nn(C)c(C)c1NC(=O)N1CCC(=Cc2cccc(Oc3ccc(C(F)(F)F)cn3)c2)CC1 [Example 134, 4-(3-{[5-(trifluoromethyl)pyridin-2-yl]oxy}benzylidene)-N-(1,3,5-trimethyl-1H-pyrazol-4-yl)piperidine-1-carboxamide]"
5,173,"Cc1ccnc(NC(=O)N2CCC(=Cc3cccc(Oc4ccc(C(F)(F)F)cn4)c3)CC2)c1 [Example 135, N-(4-methylpyridin-2-yl)-4-(3-{[5-(trifluoromethyl)pyridin-2-yl]oxy}benzylidene)piperidine-1-carboxamide]"
6,1070,"Cn1cc(NC(=O)N2CCC(=Cc3cccc(Oc4ccc(C(F)(F)F)cn4)c3)CC2)cn1 [Example 137, N-(1-methyl-1H-pyrazol-4-yl)-4-(3-{[5-(trifluoromethyl)pyridin-2-yl]oxy}benzylidene)piperidine-1-carboxamide]"
7,4300,"O=C(Nc1cn[nH]c1)N1CCC(=Cc2cccc(Oc3ccc(C(F)(F)F)cn3)c2)CC1 [Example 138, N-1H-pyrazol-4-yl-4-(3-{[5-(trifluoromethyl)pyridin-2-yl]oxy}benzylidene)piperidine-1-carboxamide]"
8,306,"Cc1cc(NC(=O)N2CCC(=Cc3cccc(Oc4ccc(C(F)(F)F)cn4)c3)CC2)n[nH]1 [Example 139, N-(5-methyl-1H-pyrazol-3-yl)-4-(3-{[5-(trifluoromethyl)pyridin-2-yl]oxy}benzylidene)piperidine-1-carboxamide]"
9,837,"COc1ccc(NC(=O)N2CCC(=Cc3cccc(Oc4ccc(C(F)(F)F)cn4)c3)CC2)c(C)n1 [Example 140, N-(6-methoxy-2-methylpyridin-3-yl)-4-(3-{[5-(trifluoromethyl)pyridin-2-yl]oxy}benzylidene)piperidine-1-carboxamide]"
10,117,"CCc1ccnc(NC(=O)N2CCC(=Cc3cccc(Oc4ccc(C(F)(F)F)cn4)c3)CC2)c1 [Example 141, N-(4-ethylpyridin-2-yl)-4-(3-{[5-(trifluoromethyl)pyridin-2-yl]oxy}benzylidene)piperidine-1-carboxamide]"
11,246,"O=C(Nc1ccc(O)nc1)N1CCC(=Cc2cccc(Oc3ccc(C(F)(F)F)cn3)c2)CC1 [Example 142, N-(6-hydroxypyridin-3-yl)-4-(3-{[5-(trifluoromethyl)pyridin-2-yl]oxy}benzylidene)piperidine-1-carboxamide]"

# Further lines, the molecule ahead of its results:
row,SMILES,kinact/KI [M⁻¹ s⁻¹]
1,"O=C(Nc1cccnn1)N1CCC(=Cc2cccc(Oc3ccc(C(=O)N4CCOCC4)cn3)c2)CC1 [Example 117, 4-(3-{[5-(morpholin-4-ylcarbonyl)pyridin-2-yl]oxy}benzylidene)-N-pyridazin-3-ylpiperidine-1-carboxamide]",< 12.4
2,"Cc1nccnc1Oc1cccc(C=C2CCN(C(=O)Nc3cccnn3)CC2)c1 [Example 118, 4-{3-[(3-methylpyrazin-2-yl)oxy]benzylidene}-N-pyridazin-3-ylpiperidine-1-carboxamide]",191
3,"Cc1nnc(Oc2cccc(C=C3CCN(C(=O)Nc4cccnn4)CC3)c2)c2ccccc12 [Example 119, 4-{3-[(4-methylphthalazin-1-yl)oxy]benzylidene}-N-pyridazin-3-ylpiperidine-1-carboxamide]",77.7
4,"Cc1cc(C)nc(Oc2cccc(C=C3CCN(C(=O)Nc4cccnn4)CC3)c2)n1 [Example 120, 4-{3-[(4,6-dimethylpyrimidin-2-yl)oxy]benzylidene}-N-pyridazin-3-ylpiperidine-1-carboxamide]",< 14.5
5,"COc1cc(Oc2cccc(C=C3CCN(C(=O)Nc4cccnn4)CC3)c2)ncn1 [Example 121, 4-{3-[(6-methoxypyrimidin-4-yl)oxy]benzylidene}-N-pyridazin-3-ylpiperidine-1-carboxamide]",896
6,"O=C(Nc1cccnn1)N1CCC(=Cc2cccc(Oc3cnc4ccccc4n3)c2)CC1 [Example 122, N-pyridazin-3-yl-4-[3-(quinoxalin-2-yloxy)benzylidene]piperidine-1-carboxamide]",909
7,"O=C(Nc1cccnn1)N1CCC(=Cc2cccc(Oc3cnccn3)c2)CC1 [Example 123, 4-[3-(pyrazin-2-yloxy)benzylidene]-N-pyridazin-3-ylpiperidine-1-carboxamide]",203
8,"O=C(Nc1cccnn1)N1CCC(=Cc2cccc(Oc3nc4ccccc4s3)c2)CC1 [Example 124, 4-[3-(1,3-benzothiazol-2-yloxy)benzylidene]-N-pyridazin-3-ylpiperidine-1-carboxamide]",7400
9,"O=C(Nc1cccnn1)N1CCC(=Cc2cccc(Oc3nc(-c4ccccc4)ns3)c2)CC1 [Example 125, 4-{3-[(3-phenyl-1,2,4-thiadiazol-5-yl)oxy]benzylidene}-N-pyridazin-3-ylpiperidine-1-carboxamide]",140
10,"O=C(Nc1ccc(C(F)(F)F)nc1)N1CCC(=Cc2cccc(Oc3ccc(C(F)(F)F)cn3)c2)CC1 [Example 126, N-[6-(trifluoromethyl)pyridin-3-yl]-4-(3-{[5-(trifluoromethyl)pyridin-2-yl]oxy}benzylidene)piperidine-1-carboxamide]",405
11,"COc1ccc(NC(=O)N2CCC(=Cc3cccc(Oc4ccc(C(F)(F)F)cn4)c3)CC2)c(OC)n1 [Example 127, N-(2,6-dimethoxypyridin-3-yl)-4-(3-{[5-(trifluoromethyl)pyridin-2-yl]oxy}benzylidene)piperidine-1-carboxamide]",675
12,"O=C(Nc1ccc(Oc2cccnc2)nc1)N1CCC(=Cc2cccc(Oc3ccc(C(F)(F)F)cn3)c2)CC1 [Example 128, N-[6-(pyridin-3-yloxy)pyridin-3-yl]-4-(3-{[5-(trifluoromethyl)pyridin-2-yl]oxy}benzylidene)piperidine-1-carboxamide]",1300
13,"COc1ncccc1NC(=O)N1CCC(=Cc2cccc(Oc3ccc(C(F)(F)F)cn3)c2)CC1 [Example 129, N-(2-methoxypyridin-3-yl)-4-(3-{[5-(trifluoromethyl)pyridin-2-yl]oxy}benzylidene)piperidine-1-carboxamide]",1730
14,"COc1cncc(NC(=O)N2CCC(=Cc3cccc(Oc4ccc(C(F)(F)F)cn4)c3)CC2)c1 [Example 130, N-(5-methoxypyridin-3-yl)-4-(3-{[5-(trifluoromethyl)pyridin-2-yl]oxy}benzylidene)piperidine-1-carboxamide]",944
